Assay: Thermodynamic parameters of BPA adsorption on inactivated sludge
Format: physicochemical
Protocol: The third set of assays consisted of evaluating the thermodynamic parameters such as Gibbs free energy)(ΔG^0), enthalpy)(ΔH^0 and entropy)(ΔS^0 changes, which parameters allowed to determine whether BPA sorption on sludge was due to physisorption or chemisorption phenomenon or the combination of both phenomena. For that, Erlenmeyer flasks containing 200 mL of inactivated sludge at 15 g TSS L^−1 and 5 mgL^−1 of BPA are used. Mixing is achieved at 150 rpm and different temperatures (22±2, 30±2 and 40±2° C.) are respectively imposed for 2 h of experiment time.
In order to calculate whether the adsorption process is spontaneous or not, thermodynamics parameters including standard Gibbs free energy of adsorption (ΔadG^0), standard enthalpy of adsorption (ΔadH^0) and standard entropy change of) adsorption (ΔadS^0) have been considered. ΔadG^0 is calculated using the following equation (Eq. (22)): ΔadG^0=−RT ln Kd (22)
T is the temperature (K), and KD is the specific adsorption coefficient (equilibrium distribution coefficient). Relation between ΔadG^0, ΔH^0 and ΔadS^0 is expressed by the following equation (Eq. (23)): ΔadG^0=ΔadH^0−TΔadS^0 (23)
wherein ΔadH^0, ΔadS^0 are calculated from the slope and intercept of the plot of ln KD versus 1/T, respectively.
The adsorption tests are conducted at different temperatures ranging from 293 K to 313 K. At each temperature, the corresponding KD at fixed initial concentration of BPA is calculated and the corresponding Gibbs free energy change is deducted according to Eq. (22).

For CC(C)(c1ccc(O)cc1)c1ccc(O)cc1 [BPA, 2,2-Bis(4-hydroxyphenyl)propane], the “ΔadH^0” value (293-313 K) was −82.121 KJmol^−1, the “ΔadS^0” value (293-313 K) was −0.257 KJmol^−1K^−1 and the “ΔadG^0” value (293 K) was -1.72 kcal/mol. The “ΔadG^0” value (303 K) was -0.7216 kcal/mol and the “ΔadG^0” value (313 K) was -0.5067 kcal/mol.

— patent publication US9199200B2, “Submerged membrane bioreactor system and biological methods for removing bisphenol compounds from municipal wastewater” (Centre de Recherche Industrielle de Québec (CRIQ), priority 2010, dated 2015)
